Experimental data as given in paper PMC8976073 (Nature Communications, 2022).
Substitutions are numbered along the chain they refer to.

What was measured:
[1] = target: T1, FPR2 (Homo sapiens, UniProt P25090); assay: Inositol-phosphate (IP) accumulation assay, FPR2 (wild type and mutants) with chimeric GαΔ6qi4myr in HEK293F cells; assay type: cell-based; details: FPR2 WT; mean ± SEM; SEM
T1 construct: expressed in transfected cells; host or cells: HEK293F cells, pTT5 vector, co-transfected with GαΔ6qi4myr (1:2 w/w)
T1 sequence (P25090 1-351): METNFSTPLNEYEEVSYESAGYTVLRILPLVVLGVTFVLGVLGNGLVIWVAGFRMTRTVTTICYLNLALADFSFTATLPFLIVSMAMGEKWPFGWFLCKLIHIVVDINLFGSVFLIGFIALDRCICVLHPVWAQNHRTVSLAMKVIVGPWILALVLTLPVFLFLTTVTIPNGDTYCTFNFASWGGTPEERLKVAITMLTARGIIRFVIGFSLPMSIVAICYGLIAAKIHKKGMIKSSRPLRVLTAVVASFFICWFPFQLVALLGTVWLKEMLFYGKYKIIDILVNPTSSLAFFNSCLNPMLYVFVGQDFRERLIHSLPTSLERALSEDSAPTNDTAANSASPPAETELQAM
Protocol: (§1) Flag-tagged wild-type FPR1 and FPR2 and mutants were cloned into the pTT5 vector and expressed in HEK293F cells. Cells were cotransfected with the plasmids of receptor and a chimeric Gα protein GαΔ6qi4myr, which redirects the Gαi signaling pathway to the Gαq phospholipase-C pathway, at a ratio of 1:2 (w/w), and were harvested 48 h post transfection. The cell-surface expression was measured as described above.
(§2) The IP-One Gq assay kit (Cisbio Bioassays, 62IPAPEB) was used to measure the peptide agonist-induced IP production. […] Then, the cells were supplemented with 3 μl cryptate-labeled anti-IP1 monoclonal antibody (1:20 diluted in lysis and detection buffer) and 3 μl d2-labeled IP1, and incubated at room temperature for another 1 h. […] The accumulation of IP1, EC50, and pEC50 were calculated using nonlinear regression (curve fit) according to a standard dose–response curve in GraphPad Prism 8.0 (GraphPad software).

[2] = target: T2, FPR2 (Homo sapiens, UniProt P25090, F110A); assay: as above; assay type: cell-based; details: FPR2 F110A
T2 construct: expressed in transfected cells; host or cells: HEK293F cells, pTT5 vector, co-transfected with GαΔ6qi4myr (1:2 w/w)
T2 sequence (P25090 1-351 F110A): T1 sequence (P25090 1-351) with F110A
Protocol: as §1, §2

- EC50 [1]: 0.126 µM
- EC50 [2]: 0.11 µM
Compound: CC[C@H](C)[C@H](NC(=O)[C@H](CCC(=O)O)NC(=O)[C@H](CO)NC(=O)[C@@H](NC(=O)[C@H](CC(C)C)NC(=O)[C@H](CC(C)C)NC(=O)[C@H](CC(C)C)NC(=O)[C@H](CC(C)C)NC(=O)[C@H](CS)NC(=O)[C@H](CO)NC(=O)[C@H](Cc1ccccc1)NC(=O)CNC(=O)[C@H](CCCNC(=N)N)NC(=O)[C@@H]1CCCN1C(=O)[C@H](C)NC(=O)[C@H](CCSC)NC=O)[C@@H](C)O)C(=O)N[C@@H](CC(=O)O)C(=O)N[C@@H](CC(C)C)C(=O)N1CCC[C@H]1C(=O)N[C@H](C(=O)N[C@@H](CCCCN)C(=O)N[C@@H](CCCNC(=N)N)C(=O)N[C@@H](CCCNC(=N)N)C(=O)N[C@@H](C)C(=O)O)C(C)C [fHN, N-formyl humanin]
